Laboratory results as given in BindingDB's records for doi:10.1016/j.bmcl.2011.07.114 (Pfizer, 2011).

Target: Histamine H4 receptor (Homo sapiens, UniProt Q9H3N8)
Experiment: Displacement of [3H]histamine from human histamine H4 receptor expressed in CHO cells after 90 mins by scintillation counting technique

Sequence of Histamine H4 receptor (Q9H3N8 whole entry): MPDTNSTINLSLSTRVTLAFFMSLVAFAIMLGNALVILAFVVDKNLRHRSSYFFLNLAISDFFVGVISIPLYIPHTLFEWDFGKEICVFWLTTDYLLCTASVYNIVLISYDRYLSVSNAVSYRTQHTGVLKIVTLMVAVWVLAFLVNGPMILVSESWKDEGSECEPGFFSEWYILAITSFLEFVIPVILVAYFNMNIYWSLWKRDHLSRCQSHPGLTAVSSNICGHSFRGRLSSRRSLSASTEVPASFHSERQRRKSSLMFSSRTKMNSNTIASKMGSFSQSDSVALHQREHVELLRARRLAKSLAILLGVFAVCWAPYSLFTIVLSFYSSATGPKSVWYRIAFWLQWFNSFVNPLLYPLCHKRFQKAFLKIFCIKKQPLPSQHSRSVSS

SMILES	Ki
CC(C)(C)CCNc1cc(N[C@H]2CCN(Cc3cccc(F)c3O)C2)ncn1	20 µM
COCc1ccc(CN2CC[C@H](Nc3cc(NCCC(C)(C)C)ncn3)C2)o1	20 µM
